# From patent US6099857A, “Cell membrane fusion composition and method” (Washington University, priority 1998, dated 2000)
# What was measured:
# [1] = NBD-PE/Rh-PE lipid-mixing fusion assay with PS SUVs; details: equal molar mixture with PC; NBD-PE dequenching
# Protocol: In the NBD-PE/Rh-PE assay detailed in Example 2B, NBD-PE (N-(7-nitrobenz-2-oxa-1,3-diazol-4-yl)-1,2-dihexadecanoyl-sn-glycerol-3-phosphoethanolamine), and Rh-PE are incorporated into PS SUV's and the vesicles are mixed with test vesicles. Vesicle fusion is followed by the change in fluorescence emission at 530 nm, after […] at 464 nm.
# This assay was performed by preparing phosphatidylserine SUVs containing 1.8% Rh-PE and 1.2% NBD-PE and adding an equimolar amount of unlabelled PC/PE vesicles pursuant to (Struck, et al. (1981); and Hoekstra, 1982). Fusion was monitored by NBD-PE fluorescence at 530 nm after excitation at 464 nm. The 100% fusion level was assessed by preparing lipid vesicles composed of 46.5% PS, 25% PC, 25% PE, 0.9% Rh-PE, and 0.6% NBD-PE and subsequently quantifying fluorescence intensity.
# Since Rh-PE partially quenches NBD-PE fluorescence by resonance energy transfer at the initial concentrations used in these experiments, membrane fusion results in an increase in NBD-PE fluorescence as available membrane surface area increases.
# To verify the results obtained with the R18 fusion assay, a second lipid-mixing assay utilizing NBD-PE and Rh-PE was used. […]
# [2] = Breakdown of lipids in vesicles during fusion studies (TLC, straight-phase HPLC, 3H label); format: physicochemical; details: within the time frame of the assay
# Text: To verify the differences in observed fusion rates were not due to selective breakdown of one subclass of ethanolamine glycerophospholipid, aliquots of lipid vesicles employed in the fusion studies were extracted by the method of Bligh and Dyer and analyzed by TLC and straight-phase HPLC. No lysophospholipids or other contaminants were detected within the time frame of the assay. For higher sensitivity detection, 16:0-18:1 plasmenyl ethanolamine was synthesized with a ^3 H label on the sn-2 oleoyl group. This label was added to a liposome preparation containing unlabeled PC and PE.
# [3] = R18 assay of calcium-induced fusion of SUVs of ternary PS/PC/ethanolamine glycerophospholipid mixtures
# [4] = biological target: T1, GAPDH isoform (membrane fusion protein) (Oryctolagus cuniculus, UniProt P46406); assay: Protein-catalyzed membrane fusion of physiologically-modeled SUVs (R18, stopped flow); format: biochemical, rabbit; details: for inhibition of membrane fusion activity: GAPDH isoform-catalyzed fusion of physiologically-modeled SUVs
# T1 construct: from tissue; host or cells: rabbit brain (cytosol; DE-52 void volume, HiLoad SP Sepharose, GTP-agarose and Mono Q fractions)
# Protocol: Rabbit brain cytosol was prepared and loaded onto a previously equilibrated DE-52 column. The column was developed with a linear NaCl gradient (0-400 Mm NaCl) and column eluents were assayed for their ability to catalyze membrane fusion utilizing physiologically-modeled small unilamellar vesicles (SUVs) as described in "Materials and Methods". Vesicles were comprised of 16:0-18:1 phosphatidylcholine (27%), 16:0-18:1 phosphatidylserine (6%), cholesterol (40%) and 27% of each of the following ethanolamine glycerophospholipids: 18:0-20:4 plasmenylethanolamine; 16:0-18:1 plasmenylethanolamine; 18:0-20:4 phosphatidylethanolamine; or 16:0-18:1 phosphatidylethanolamine . (----), uv absorbance at 280 nm; (----), NaCl gradient.
# Physiologically-modeled SUVs were prepared (concentration=200 μM). The other chamber contained the Pi3 /NAD^+ eluent from GTP-agarose chromatography (0.004 mg/ml) which was previously incubated with (D)-glyceraldehyde 3-phosphate at the indicated concentrations for 30 seconds at 37° C. The rates of membrane fusion from four separate determinations of two preparations were averaged and expressed as a percentage of maximum fusion.
# Physiologically-modeled small unilamellar vesicles consisting of 16:0-18:1 phosphatidylcholine (27%), ethanolamine glycerophospholipid (27%), 16:0-18:1 phosphatidylserine (6%) and cholesterol (40%) were prepared (final lipid concentration of 200 μM) and placed in one chamber of a stopped-flow apparatus. Aliquots of the HiLoad SP Sepharose column eluent (protein concentration=0.002 mg/ml) were placed in the other chamber, samples were rapidly mixed in a stopped flow apparatus and membrane fusion was quantified. Ethanolamine glycerophospholipids included 100% plasmenyl ethanolamine (A) 75% plasmenyl ethanolamine and 25% PE (B); 50% plasmenyl ethanolamine and 50% PE (C); and 25% plasmenyl ethanolamine and 75% PE (D;
# Vesicles were composed of 16:0-18:1 PC/18:0-20:4 plasmenyl ethanolamine/cholesterol (27/27/40 mole percent) and varying mole percentages of phosphatidylserine (6% phosphatidylserine (A), 12% phosphatidylserine (B), 3% phosphatidylserine (C) or 0% phosphatidylserine (D)).
# Physiologically-modeled SUVs containing phosphatidylcholine/18:0-20:4 plasmenylethanolamine/phosphatidylserine (45/45/10 mole ratio) and selected mole percentages of cholesterol (i.e., 40% cholesterol (A), 20% cholesterol (B), or 0% cholesterol (C)) were placed in one chamber of a stopped-flow apparatus. The other chamber contained aliquots of the active fraction from GTP-agarose chromatography (i.e., 20 mM tripolyphosphate/10 mM NAD^+ (Pi3 /NAD^+)), at a protein concentration of 0.004 mg/ml. Samples were rapidly mixed and membrane fusion was quantified. Results represent the average of six recordings from two independent preparations expressed as a percentage of maximal fusion.
# The isolation of a GAPDH isoform that has been discovered to catalyze vesicle fusion, in accordance with the invention, is described in Example 5. Briefly, a […] homogenate was centrifuged at high speed to produce a cytosol. Dialyzed cytosol was fractionated on a DE-52 column, and the fractions were assayed in a vesicle fusion assay. The lipid vesicles that were used in the assay were composed of 27 mole percent of […], 6 mole percent PS, 40 mole percent cholesterol, and 27 mole percent […]. These vesicles show little measurable self-fusion activity, as evidenced by change in fluorescence in an R18 assay (half of the vesicles labeled with R18). […] The reasons underlying the cryptic nature of this activity in crude cytosol have been elaborated, showing that the cytosol contains a potent endogenous protein inhibitor of fusion activity. […]
# GAPDH = biological target: T2, GAPDH (Oryctolagus cuniculus, UniProt P46406); assay: Glyceraldehyde 3-phosphate dehydrogenase activity (spectrophotometric, NADH); format: biochemical, rabbit
# T2 construct: Column eluents were assayed for GAPDH activity and membrane fusion activity; from tissue; host or cells: rabbit brain (column eluents of the purification)
# Protocol: The activity of GAPDH was measured spectrophotometrically utilizing modifications of the methods of Cori, .backslash.at al. (1948) and Steck, et al. (1973). Briefly, sample was added to a 1 cm path-length semi-micro cuvette containing 50 mM triethanolamine (pH 7-6), sodium arsenate (50 mM) (pH 8.8), 2.4 mM glutathione (reduced), 0.5 mM NAD, and water in a final volume of 990 .backslash.pl. After establishing a baseline (1 min), the reaction was initiated with 10 μl of 10 mM D-glyceraldehyde 3-phosphate (prepared according to Sigma product bulletin G-8007) and absorbance at 340 nm was measured for 5 minutes. Units of GAPDH activity represent the mass (μmol) of D-glyceraldehyde 3-phosphate converted per minute. The mass of NADH generated was calculated utilizing ε=[…].
# T1 sequence (P46406 2-333 limits assumed): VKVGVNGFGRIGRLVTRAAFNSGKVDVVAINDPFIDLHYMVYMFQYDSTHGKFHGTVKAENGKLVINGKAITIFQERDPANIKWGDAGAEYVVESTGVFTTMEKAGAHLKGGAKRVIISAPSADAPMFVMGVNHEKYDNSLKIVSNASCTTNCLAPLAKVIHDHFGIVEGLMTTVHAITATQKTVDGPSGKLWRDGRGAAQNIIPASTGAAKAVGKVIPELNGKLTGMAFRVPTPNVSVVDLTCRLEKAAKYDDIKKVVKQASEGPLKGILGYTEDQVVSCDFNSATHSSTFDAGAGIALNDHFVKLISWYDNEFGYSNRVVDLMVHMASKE
# T2 sequence (P46406 2-333 limits assumed): as above
compound,measurement,setting,value
CCCCCCCC/C=C\CCCCCCCC(=O)O[C@H](CO/C=C\CCCCCCCCCCCCCC)COP(=O)(O)OCCN [16:0-18:1 plasmenyl ethanolamine],rate of fusion to PS SUVs relative to PC/16:0-18:1 phosphatidylethanolamine vesicles,[1],three times more rapidly
same,breakdown of lipid during the fusion procedures,[2],No significant generation of radiolabeled fatty acid or lysophospholipid
same,initial rate of membrane fusion relative to vesicles with 16:0-18:1 phosphatidylethanolamine,[3]; 45% PC/45% PE/10% PS vesicles,significantly greater
same,fusogenicity relative to vesicles containing 16:0-18:1 phosphatidylethanolamine,[3]; POPS/POPC/ethanolamine glycerophospholipid (1:1:1) SUVs,six times more fusogenic
O=C[C@H](O)COP(=O)(O)O [D-glyceraldehyde 3-phosphate],inhibition of membrane fusion activity,[4],inhibited
O=C(O)c1cc(SSc2ccc([N+](=O)[O-])c(C(=O)O)c2)ccc1[N+](=O)[O-] [DTNB],inactivation of membrane fusion-catalyzing activity,"[4]; 1 mM for 30 minutes at 37° C., void volume activity",inactivated
CC(C)[C@H]1CC[C@@]2(CO2)[C@H]2C(=O)OCC(C(=O)O)=C[C@H]12 [Koningic acid],inhibition of GAPDH enzyme activity,GAPDH,maximally inhibited
same,inhibition of membrane fusion activity,[4],failed to inhibit
CCN1C(=O)C=CC1=O [N-ethylmaleimide],inhibition of membrane fusion-catalyzing activity,"[4]; 1 mM for 60 minutes at 37° C., void volume activity",not inhibited
GAPDH isoform: 38 kDa isoform of glyceraldehyde-3-phosphate dehydrogenase purified from rabbit brain cytosol that catalyzes vesicle fusion,time for catalyzed fusion of one pair of vesicles (on average),"[4]; calculated, protein 4 μg/ml, assumes ≈1000 lipid molecules per vesicle and tetramer",1 ms
same,selectivity of membrane fusion activity for vesicles containing plasmenylethanolamine compared with phosphatidylethanolamine,[4]; each stage of the purification procedure,highly selective
